{
  "source": "patent US7902373B2",
  "about": "(Pfizer Inc, priority 2006, dated 2011)",
  "data": [
    {"target": "human recombinant H-PGDS (Homo sapiens, UniProt O60760)", "sequence (O60760 whole entry)": "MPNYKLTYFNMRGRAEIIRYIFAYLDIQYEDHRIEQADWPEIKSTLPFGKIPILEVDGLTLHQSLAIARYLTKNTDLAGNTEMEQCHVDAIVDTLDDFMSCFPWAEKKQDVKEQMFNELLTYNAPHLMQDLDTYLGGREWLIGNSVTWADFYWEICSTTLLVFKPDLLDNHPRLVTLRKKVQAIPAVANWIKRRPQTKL", "experiment": "Fluorescence intensity h-PGDS TBA enzyme assay", "format": "biochemical", "conditions": "Examples up to 622 (and 3a, 3b)", "units": {"IC50": "nM"}, "values": [
      {"smiles": "O=C(NC1CCN(Cc2cnn3c2CCCCC3)CC1)c1ccc(-c2cccc(F)c2)nc1", "note": "[Example 387, 6-(3-Fluorophenyl)-N-[1-(5,6,7,8-tetrahydro-4H-pyrazolo[1,5-a]azepin-3-ylmethyl)piperidin-4-yl]nicotinamide]", "IC50": 1.85},
      {"smiles": "CCc1noc(COc2cccc(CN3CCC(NC(=O)c4ccc(-c5cccc(F)c5)nc4)CC3)c2)n1", "note": "[Example 388, N-(1-{3-[(3-Ethyl-1,2,4-oxadiazol-5-yl)methoxy]benzyl}piperidin-4-yl)-6-(3-fluorophenyl)nicotinamide]", "IC50": 0.951},
      {"smiles": "Cc1nccc(CN2CCC(NC(=O)c3ccc(-c4cccc(F)c4)nc3)CC2)n1", "note": "[Example 389, 6-(3-Fluorophenyl)-N-{1-[(2-methylpyrmidin-4-yl)methyl]piperidin-4-yl}nicotinamide]", "IC50": 2.23},
      {"smiles": "CN(c1nccc(CN2CCC(NC(=O)c3ccc(-c4cccc(F)c4)nc3)CC2)n1)C1CCCCC1", "note": "[Example 390, N-[1-({2-[Cyclohexyl(methyl)amino]pyrimidin-4-yl}methyl)piperidin-4-yl]-6-(3-fluorophenyl)nicotinamide]", "IC50": 11.6},
      {"smiles": "COCCCNc1nccc(CN2CCC(NC(=O)c3ccc(-c4cccc(F)c4)nc3)CC2)n1", "note": "[Example 391, 6-(3-Fluorophenyl)-N-[1-({2-[(3-methoxypropyl)amino]pyrimidin-4-yl}methyl)piperidin-4-yl]nicotinamide]", "IC50": 1.2},
      {"smiles": "CN(C)c1nccc(CN2CCC(NC(=O)c3ccc(-c4cccc(F)c4)nc3)CC2)n1", "note": "[Example 392, N-(1-{[2-(Dimethylamino)pyrimidin-4-yl]methyl}piperidin-4-yl)-6-(3-fluorophenyl)nicotinamide]", "IC50": 0.849},
      {"smiles": "O=C(NC1CCN(Cc2ccnc(NC3CC3)n2)CC1)c1ccc(-c2cccc(F)c2)nc1", "note": "[Example 393, N-(1-{[2-(Cyclopropylamino)pyrimidin-4-yl]methyl}piperidin-4-yl)-6-(3-fluorophenyl)nicotinamide]", "IC50": 1.18},
      {"smiles": "O=C(NC1CCN(Cc2ccn(CCc3ccccc3)n2)CC1)c1ccc(-c2cccc(F)c2)nc1", "note": "[Example 394, 6-(3-Fluorophenyl)-N-(1-{[1-(2-phenylethyl)-1H-pyrazol-3-yl]methyl}piperidin-4-yl)nicotinamide]", "IC50": 0.379},
      {"smiles": "O=C(NC1CCN(Cc2ccnn2CCc2ccccc2)CC1)c1ccc(-c2cccc(F)c2)nc1", "note": "[Example 395, 6-(3-Fluorophenyl)-N-(1-{[1-(2-phenylethyl)-1H-pyrazol-5-yl]methyl}piperidin-4-yl)nicotinamide]", "IC50": 1.43},
      {"smiles": "Cn1ccc(CN2CCC(NC(=O)c3ccc(-c4cccc(F)c4)nc3)CC2)n1", "note": "[Example 396, 6-(3-Fluorophenyl)-N-{1-[(1-methyl-1H-pyrazol-3-yl)methyl]piperidin-4-yl}nicotinamide]", "IC50": 1.45},
      {"smiles": "O=C(NC1CCN(Cc2ccnc(N3CCOCC3)n2)CC1)c1ccc(-c2cccc(F)c2)nc1", "note": "[Example 397, 6-(3-Fluorophenyl)-N-{1-[(2-morpholin-4-ylpyrimidin-4-yl)methyl]piperidin-4-yl}nicotinamide]", "IC50": 1.47},
      {"smiles": "CCN(C)c1ncc2c(n1)CCC(CN1CCC(NC(=O)c3ccc(-c4cccc(F)c4)nc3)CC1)C2", "note": "(stereo not shown) [Example 398, N-[1-({2-[Ethyl(methyl)amino]-5,6,7,8-tetrahydroquinazolin-6-yl}methyl)piperidin-4-yl]-6-(3-fluorophenyl)nicotinamide]", "IC50": 8.56},
      {"smiles": "O=C(NC1CCN(CC2CCc3nc(CC4CC4)ncc3C2)CC1)c1ccc(-c2cccc(F)c2)nc1", "note": "(stereo not shown) [Example 399, N-(1-{[2-(cyclopropylmethyl)-5,6,7,8-tetrahydroquinazolin-6-yl]methyl}piperidin-4-yl)-6-(3-fluorophenyl)nicotinamide]", "IC50": 1.02},
      {"smiles": "CC(C)c1ncc2c(n1)CCC(CN1CCC(NC(=O)c3ccc(-c4cccc(F)c4)nc3)CC1)C2", "note": "(stereo not shown) [Example 400, 6-(3-Fluorophenyl)-N-{1-[(2-isopropyl-5,6,7,8-tetrahydroquinazolin-6-yl)methyl]piperidin-4-yl}nicotinamide]", "IC50": 1.04},
      {"smiles": "Cc1ncc2c(n1)CCC(CN1CCC(NC(=O)c3ccc(-c4cccc(F)c4)nc3)CC1)C2", "note": "(stereo not shown) [Example 401, 6-(3-Fluorophenyl)-N-{1-[(2-methyl-5,6,7,8-tetrahydroquinazolin-6-yl)methyl]piperidin-4-yl}nicotinamide]", "IC50": 0.574},
      {"smiles": "CC(C)(C)c1ncc2c(n1)CCC(CN1CCC(NC(=O)c3ccc(-c4cccc(F)c4)nc3)CC1)C2", "note": "(stereo not shown) [Example 402, N-{1-[(2-tert-Butyl-5,6,7,8-tetrahydroquinazolin-6-yl)methyl]piperidin-4-yl}-6-(3-fluorophenyl)nicotinamide]", "IC50": 1.64},
      {"smiles": "CCCc1ncc2c(n1)CCC(CN1CCC(NC(=O)c3ccc(-c4cccc(F)c4)nc3)CC1)C2", "note": "(stereo not shown) [Example 403, 6-(3-Fluorophenyl)-N-{1-[(2-propyl-5,6,7,8-tetrahydroquinazolin-6-yl)methyl]piperidin-4-yl}nicotinamide]", "IC50": 0.121},
      {"smiles": "COCCOc1c(CN2CCC(NC(=O)c3ccc(-c4cccc(F)c4)nc3)CC2)cccc1OC", "note": "[Example 404, 6-(3-Fluorophenyl)-N-{1-[3-methoxy-2-(2-methoxyethoxy)benzyl]piperidin-4-yl}nicotinamide]", "IC50": 0.469},
      {"smiles": "COc1cc(CN2CCC(NC(=O)c3ccc(-c4cccc(F)c4)nc3)CC2)ccc1OCC(F)F", "note": "[Example 405, N-{1-[(2,2-Difluoroethoxy)-3-methoxybenzyl]piperidin-4-yl}-6-(3-fluorophenyl)nicotinamide]", "IC50": 0.483},
      {"smiles": "O=C(NC1CCN(Cc2cn3ccccc3n2)CC1)c1ccc(-c2cccc(F)c2)nc1", "note": "[Example 406, 6-(3-Fluorophenyl)-N-[1-(imidazo[1,2-a]pyridin-2-ylmethyl)piperidin-4-yl]nicotinamide]", "IC50": 2.36},
      {"smiles": "O=C(NC1CCN(Cc2nc(-c3ccc(F)cc3)cs2)CC1)c1ccc(-c2cccc(F)c2)nc1", "note": "[Example 407, 6-(3-Fluorophenyl)-N-(1-{[4-(4-fluorophenyl)-1,3-thiazol-2-yl]methyl}piperidin-4-yl)nicotinamide]", "IC50": 5.4},
      {"smiles": "O=C(NC1CCN(Cc2nc(-c3cccc(F)c3)cs2)CC1)c1ccc(-c2cccc(F)c2)nc1", "note": "[Example 408, 6-(3-Fluorophenyl)-N-(1-{[4-(3-fluorophenyl)-1,3-thiazol-2-yl]methyl}piperidin-4-yl)nicotinamide]", "IC50": 61.9},
      {"smiles": "COc1cccc(-c2csc(CN3CCC(NC(=O)c4ccc(-c5cccc(F)c5)nc4)CC3)n2)c1", "note": "[Example 409, 6-(3-Fluorophenyl)-N-(1-{[4-(3-methoxyphenyl)-1,3-thiazol-2-yl]methyl}piperidin-4-yl)nicotinamide]", "IC50": 2.25},
      {"smiles": "N#Cc1cccc(-c2csc(CN3CCC(NC(=O)c4ccc(-c5cccc(F)c5)nc4)CC3)n2)c1", "note": "[Example 410, N-(1-{[4-(3-Cyanophenyl)-1,3-thiazol-2-yl]methyl}piperidin-4-yl)-6-(3-fluorophenyl)nicotinamide]", "IC50": 16.3},
      {"smiles": "CCc1csc(CN2CCC(NC(=O)c3ccc(-c4cccc(F)c4)nc3)CC2)n1", "note": "[Example 411, N-{1-[(4-Ethyl-1,3-thiazol-2-yl)methyl]piperidin-4-yl}-6-(3-fluorophenyl)nicotinamide]", "IC50": 1.36},
      {"smiles": "Cc1sc(CN2CCC(NC(=O)c3ccc(-c4cccc(F)c4)nc3)CC2)nc1-c1ccccc1", "note": "[Example 412, 6-(3-Fluorophenyl)-N-{1-[(5-methyl-4-phenyl-13-thiazol-2-yl)methyl]piperidin-4-yl}nicotinamide]", "IC50": 4.12},
      {"smiles": "O=C(NC1CCN(Cc2nc3ccccn3c2Br)CC1)c1ccc(-c2cccc(F)c2)nc1", "note": "[Example 414, N-{1-[(3-Bromoimidazo[1,2-a]pyridin-2-yl)methyl]piperidin-4-yl}-6-(3-fluorophenyl)nicotinamide]", "IC50": 0.35},
      {"smiles": "Cn1c(CN2CCC(NC(=O)c3ccc(-c4cccc(F)c4)nc3)CC2)nc2cccnc21", "note": "[Example 415, 6-(3-Fluorophenyl)-N-{1-[(3-methyl-3H-imidazo[4,5-b]pyridin-2-yl)methyl]piperidin-4-yl}nicotinamide]", "IC50": 1.96},
      {"smiles": "CC(C)(C)OC(=O)NC1CCC(CN2CCC(NC(=O)c3ccc(-c4cccc(F)c4)nc3)CC2)CC1", "note": "(stereo not shown) [Example 416, tert-Butyl (4-{[4-({[6-(3-fluorophenyl)pyridin-3-yl]carbonyl}amino)piperidin-1-yl]methyl}cyclohexyl)carbamate]", "IC50": 1.68},
      {"smiles": "CN(C)CCCOc1cccc(CN2CCC(NC(=O)c3ccc(-c4cccc(F)c4)nc3)CC2)c1", "note": "[Example 417, N-(1-{3-[3-(Dimethylamino)propoxy]benzyl}piperidin-4-yl)-6-(3-fluorophenyl)nicotinamide]", "IC50": 1.1},
      {"smiles": "O=C(NC1CCN(Cc2cccc3c2OCCO3)CC1)c1ccc(-c2cccc(F)c2)nc1", "note": "[Example 418, N-[1-(2,3-Dihydro-1,4-benzodioxin-5-ylmethyl)piperidin-4-yl]-6-(3-fluorophenyl)nicotinamide]", "IC50": 0.427},
      {"smiles": "CC(C)(O)c1ccc(CN2CCC(NC(=O)c3ccc(-c4cccc(F)c4)nc3)CC2)c(F)c1", "note": "[Example 419, N-[1-(2-Fluoro-4-(1-hydroxy-1-methylethyl)benzyl]piperidin-4-yl}-6-(3-fluorophenyl)nicotinamide]", "IC50": 1.03},
      {"smiles": "COCCn1c(CN2CCC(NC(=O)c3ccc(-c4cccc(F)c4)nc3)CC2)nc2ccccc21", "note": "[Example 420, 6-(3-Fluorophenyl)-N-(1-{[1-(2-methoxyethyl)-1H-benzimidazol-2-yl]methyl}piperidin-4-yl)nicotinamide]", "IC50": 3.4},
      {"smiles": "Cn1c(CN2CCC(NC(=O)c3ccc(-c4cccc(F)c4)nc3)CC2)nc2ncccc21", "note": "[Example 421, 6-(3-Fluorophenyl)-N-{1-[(1-methyl-1H-imidazo[4,5-b]pyridin-2-yl)methyl]piperidin-4-yl}nicotinamide]", "IC50": 1.34},
      {"smiles": "O=C(NC1CCN(Cc2nc3ccccc3n2C2CC2)CC1)c1ccc(-c2cccc(F)c2)nc1", "note": "[Example 422, N-{1-[(1-Cyclopropyl-1H-benzimidazol-2-yl)methyl]piperidin-4-yl}-6-(3-fluorophenyl)nicotinamide]", "IC50": 2.53},
      {"smiles": "O=C(NC1CCN(Cc2nc3ccccc3n2CCF)CC1)c1ccc(-c2cccc(F)c2)nc1", "note": "[Example 423]", "IC50": 0.931},
      {"smiles": "O=C(NC1CCN(Cc2nc3ccccc3n2CF)CC1)c1ccc(-c2cccc(F)c2)nc1", "note": "[Example 424]", "IC50": 1.3}
    ]}
  ]
}
